How the values were obtained:
[1] = tested on: Ground defatted feed quality soy; assay: Two-step hydrolysis of feed soy (°Brix, osmolality, DH); format: biochemical
Description: Ground defatted feed quality soy was mixed with deionised water under the conditions described below. The hydrolysis was carried out in two steps in order to simulate the pH conditions in the stomach and the small intestine.
70 g ground defatted soy
Time 1st step 180 minutes
Enzymes 1st step I) Pepsin 1.92 g
II) I + Bio-Feed Pro 3.0 L
2nd step I) Pancreatin 6 g
The enzymes were added at start 0 minutes. During the hydrolysis ° Brix and osmolality were measured to follow the reaction course. According to Adler-Nissen (1986) the osmolality values can be used for calculation of the Degree of Hydrolysis (DH) by the following equation: [formula] Where Δ is the increase in osmolality mOSM, S % is protein concentration, ω is the calibration factor for the osmometer, htot is the total number of peptide bonds in the protein substrate (meqv/g protein), and fosm is the factor for converting % to g/kg H2 O. [formula]

[2] = tested on: Hen Lysozyme; assay: Cleaning of contact lenses: removal of denatured 14C-lysozyme in 3% H2O2, pH 3.5; format: biochemical; details: 3% H2O2, pH 3.5, four hours, 25° C.; FIG. 7
Description: The experimental protocol was as follows:
Materials: Hen Lysozyme, L-6878 from Sigma "Rythmic" contact lens' from Essilor (Type II lens, high-water, nonionic) Protease I produced as described above Protease II produced as described above Porcine pepsin, P-6887 from Sigma Subtilisin carlsberg, Clear-Lens Pro® (Novo Nordisk A/S).
Standard buffer: 0.05M Na2 HPO4, 0.9% NaCl pH 7.5
Scintillation liquid, Optiphase "HiSafe III"
Hen lysozyme from Sigma was labelled with ^14 C through reductive methylation and purified.
A solution was made containing 0.05M Na2 HPO4, 0.9% NaCl and 0.2 mg/ml lysozyme pH 7.5. An amount of ^14 C-labelled lysozyme was added so the CPM (Counts Per Minute) is approximately 200.000. 1.0 ml of the solution was transferred to a scintillation glass. The contact lens was added and the glass placed in a water-bath at 85° C. for 30 minutes.
The contact lens was then rinsed in 3×3 ml reagent buffer. It was quartered with a scalpel. Each quarter was transferred to a new scintillation glass containing 3 ml of the reagent buffer. […]
The reaction took place over four hours at 25° C. […] 12 ml scintillation liquid was added and CPM was measured in a Packard 2500 TR liquid scintillation counter. […]
The relative amount of lysozyme removed from the lens during the combined disinfection/cleaning was calculated from the mass balance of each quarter lens. […]

[3] = STEP II (pH 6.5, with Pancreatin), 180 min

Molecule: Pepsin
- mOSM ([1]; STEP I (pH 4.0, 40° C.), 0 min): 347 mOSM
- mOSM INCREASE ([1]; STEP I (pH 4.0, 40° C.), 0 min): 0 mOSM
- °BRIX ([1]; STEP I (pH 4.0, 40° C.), 0 min): 5.09 °BRIX
- % DH (Degree of Hydrolysis) ([1]; STEP I (pH 4.0, 40° C.), 0 min, calculated from osmolality): 0%
- % DH (Degree of Hydrolysis) ([1]; STEP I, 5 min): 2.86%
- mOSM ([1]; STEP I, 5 min): 362 mOSM
- mOSM INCREASE ([1]; STEP I, 5 min): 15 mOSM
- °BRIX ([1]; STEP I, 5 min): 6.135 °BRIX
- % DH (Degree of Hydrolysis) ([1]; STEP I, 10 min): 2.86%
- mOSM ([1]; STEP I, 10 min): 362 mOSM
- mOSM INCREASE ([1]; STEP I, 10 min): 15 mOSM
- °BRIX ([1]; STEP I, 10 min): 6.505 °BRIX
- % DH (Degree of Hydrolysis) ([1]; STEP I, 15 min): 2.57%
- mOSM ([1]; STEP I, 15 min): 360.5 mOSM
- mOSM INCREASE ([1]; STEP I, 15 min): 13.5 mOSM
- °BRIX ([1]; STEP I, 15 min): 6.625 °BRIX
- % DH (Degree of Hydrolysis) ([1]; STEP I, 30 min): 3.14%
- mOSM ([1]; STEP I, 30 min): 363.5 mOSM
- mOSM INCREASE ([1]; STEP I, 30 min): 16.5 mOSM
- °BRIX ([1]; STEP I, 30 min): 6.9275 °BRIX
- % DH (Degree of Hydrolysis) ([1]; STEP I, 45 min): 3.62%
- mOSM ([1]; STEP I, 45 min): 366 mOSM
- mOSM INCREASE ([1]; STEP I, 45 min): 19 mOSM
- °BRIX ([1]; STEP I, 45 min): 7.345 °BRIX
- % DH (Degree of Hydrolysis) ([1]; STEP I, 60 min): 4.00%
- mOSM ([1]; STEP I, 60 min): 368 mOSM
- mOSM INCREASE ([1]; STEP I, 60 min): 21 mOSM
- °BRIX ([1]; STEP I, 60 min): 7.745 °BRIX
- % DH (Degree of Hydrolysis) ([1]; STEP I, 90 min): 4.47%
- mOSM ([1]; STEP I, 90 min): 370.5 mOSM
- mOSM INCREASE ([1]; STEP I, 90 min): 23.5 mOSM
- °BRIX ([1]; STEP I, 90 min): 8.175 °BRIX
- % DH (Degree of Hydrolysis) ([1]; STEP I, 120 min): 4.95%
- mOSM ([1]; STEP I, 120 min): 373 mOSM
- mOSM INCREASE ([1]; STEP I, 120 min): 26 mOSM
- °BRIX ([1]; STEP I, 120 min): 8.695 °BRIX
- % DH (Degree of Hydrolysis) ([1]; STEP I, 180 min): 6.57%
- mOSM ([1]; STEP I, 180 min): 381.5 mOSM
- mOSM INCREASE ([1]; STEP I, 180 min): 34.5 mOSM
- °BRIX ([1]; STEP I, 180 min): 9.195 °BRIX
- mOSM [1, 3]: 468 mOSM
- mOSM INCREASE [1, 3]: 0 mOSM
- °BRIX [1, 3]: 12.965 °BRIX
- mOSM ([1]; STEP II, 185 min): 996 mOSM
- mOSM INCREASE ([1]; STEP II, 185 min): 528 mOSM
- °BRIX ([1]; STEP II, 185 min): 15.135 °BRIX
- mOSM ([1]; STEP II, 190 min): 1009 mOSM
- mOSM INCREASE ([1]; STEP II, 190 min): 541 mOSM
- °BRIX ([1]; STEP II, 190 min): 15.4025 °BRIX
- mOSM ([1]; STEP II, 195 min): 1015.5 mOSM
- mOSM INCREASE ([1]; STEP II, 195 min): 547.5 mOSM
- °BRIX ([1]; STEP II, 195 min): 15.637 °BRIX
- mOSM ([1]; STEP II, 210 min): 1037.5 mOSM
- mOSM INCREASE ([1]; STEP II, 210 min): 569.5 mOSM
- °BRIX ([1]; STEP II, 210 min): 16.135 °BRIX
- mOSM ([1]; STEP II, 225 min): 1054.5 mOSM
- mOSM INCREASE ([1]; STEP II, 225 min): 586.5 mOSM
- °BRIX ([1]; STEP II, 225 min): 16.415 °BRIX
- mOSM ([1]; STEP II, 240 min): 1068.5 mOSM
- mOSM INCREASE ([1]; STEP II, 240 min): 600.5 mOSM
- °BRIX ([1]; STEP II, 240 min): 16.705 °BRIX
- mOSM ([1]; STEP II, 270 min): 1087.5 mOSM
- mOSM INCREASE ([1]; STEP II, 270 min): 619.5 mOSM
- °BRIX ([1]; STEP II, 270 min): 17.075 °BRIX
- mOSM ([1]; STEP II, 300 min): 1111 mOSM
- mOSM INCREASE ([1]; STEP II, 300 min): 643 mOSM
- °BRIX ([1]; STEP II, 300 min): 17.437 °BRIX
- mOSM ([1]; STEP II, 360 min): 1148 mOSM
- mOSM INCREASE ([1]; STEP II, 360 min): 680 mOSM
- °BRIX ([1]; STEP II, 360 min): 18.075 °BRIX

B1: Subtilisin carlsberg (protein, UniProt P00780 106-379, looked up)
Subtilisin Carlsberg: AQTVPYGIPLIKADKVQAQGFKGANVKVAVLDTGIQASHPDLNVVGGASFVAGEAYNTDGNGHGTHVAGTVAALDNTTGVLGVAPSVSLYAVKVLNSSGSGSYSGIVSGIEWATTNGMDVINMSLGGASGSTAMKQAVDNAYAKGVVVVAAAGNSGSSGNTNTIGYPAKYDSVIAVGAVDSNSNRASFSSVGAELEVMAPGAGVYSTYPTNTYATLNGTSMASPHVAGAAALILSKHPNLSASQVRNRLSSTATYLGSSFYYGKGLINVEAAAQ
notes: Subtilisin carlsberg, Clear-Lens Pro® (Novo Nordisk A/S), presently used serin protease for contact lens cleaning
- performance in contact lens cleaning (lysozyme removed) [2]: poor performance

— patent publication US5854050A, “Enzyme with protease activity” (Novo Nordisk A/S, priority 1993, dated 1998)
